In the test the test system is Sphaerotheca fusca. The test can be described thus: Control effect of sprayed extract on leaves of cucurbitaceous crops infected with Sphaerotheca fusca. It counts as in vivo. Conditions: 4,000 fold dilution, 7 days after spray. The procedure:
The control effects of the extract of the cultured H55 strain prepared in Example 1 were measured. […] The extract was sprayed once at the initial stage of the development of Sphaerotheca fusca, and at 7 days after the spray of the extract, the control effect of the extract for each crop was measured.

This is an account of results in patent US8821888B2, “Xylogone ganodermophthora strain with antifungal activity, and composition including same for preventing plant diseases” (The Director of Chungcheongbuk-Do Agricultural Research and …, priority 2013, dated 2014).

As for `CCCOC/C(=N\c1ccc(Cl)cc1C(F)(F)F)n1ccnc1` [Triflumizole], the Control value is, setting by setting: (Cucumbers) 83.3; (Melons) 42.9; (Oriental melons) 80.0; (Pumpkins) 62.5. The Diseased leaf area runs as follows: (Cucumbers) 10%; (Melons) 40%; (Oriental melons) 10%; (Pumpkins) 30%.
